The source of these data is paper PMC5697638, “Identification of a Potent Phosphoinositide 3‐Kinase Pan Inhibitor Displaying a Strategic Carboxylic Acid Group and Development of Its Prodrugs” (Chemmedchem, 2017).

Format in all cases: biochemical
In one assay the target is T1, hPI3Kδ (PIK3CD/PIK3R1) (Homo sapiens, UniProt O00329).
T1 construct: purchased ProQinase, Germany 1162–1165‐1
The experiment in a line: lipid kinase assay (ADP-Glo), PI3Kδ. Particulars: for inhibition at 1 µM: determined at 1 μM, at least triplicate, read-out: Inhibitory activity, PI3K isoform δ; for IC50: Table 2, mean of at least three determinations, 95 % confidence intervals. On the procedure:
(§1) In vitro selection, lipid kinase assay: To determine the inhibitory activity of the new molecular entities on PI3K enzyme, a lipid kinase assay was performed: recombinant proteins (30 ng), human PI3Kα (PIK3CA/PIK3R1, #1161‐1165‐1 ProQinase–Germany), hPI3Kβ (PIK3CB wt/PIK3R1, #1168‐1165‐1 ProQinase, Germany), hPI3Kγ (PIK3CG, #1163‐0000‐1 ProQinase, Germany), hPI3Kδ (PIK3CD/PIK3R1, #1162–1165‐1 ProQinase, Germany), hPI3K‐C2α (PIK3C2A, #14‐906 Merck Millipore_Merck KGaA, Germany), hPI3K‐C2β (PIK3C2B, #14‐907 Merck Millipore_Merck KGaA, Germany), hPI3K‐c2γ (PIK3C2G, #1207‐0000‐1 ProQinase, Germany), and hVps34 (PIK3C3, #1160‐0000‐1 ProQinase, Germany), were incubated in kinase buffer {12.5 μL; 20 mM Tris‐HCl pH 7.5, 10 mM MgCl2, 10 μM ATP, 0.05 mg mL^−1 BSA, 0.5 mM EDTA, 5 mM HEPES pH 7.5, for PI3Kα,PI3Kβ, PI3Kγ, PI3Kδ, PI3KC‐2α, and PI3KC‐2γ; 15 mM MnCl2, 5 mM EGTA, 100 μM ATP, 50 mM HEPES pH 7.5, 100 mM NaCl, and 0.03 % CHAPS for PI3K‐C2β and VPS34 {BSA=bovine serum albumin; EDTA=ethylenediaminetetraacetic acid; HEPES=4‐(2‐hydroxyethyl)‐1‐piperazineethanesulfonic acid; EGTA=ethylene glycol‐bis(2‐aminoethylether)‐N,N,N′,N′‐tetraacetic acid; CHAPS=3‐[(3‐cholamidopropyl)dimethylammonio]‐1‐propanesulfonate}. In the reaction, the ATP concentration used for different PI3Ks was defined on the basis of the Michaelis–Menten kinetics of each enzyme, provided by the supplier. Reaction was performed in presence of 0.5 mg mL^−1 lipid micelles (1:1 phosphatidylinositol/phosphatidylserine) and in the absence (DMSO alone) or presence of increasing concentrations of each compound (from 0.1 nM to 30 μM). The mixture was kept at room temperature (RT) for 30 min for PI3Kα, PI3Kβ, PI3Kγ, PI3Kδ, PI3KC‐2α, and PI3KC‐2γ and for 1 h for PI3K‐C2β and PI3K‐C3. The amount of ADP produced in the reaction was measured by using the ADP‐Glo Kinase Assay kit from Promega (#V9102) and a luminescence reader (Glomax multi detection system, Promega, model number 9301‐010).
(§2) The residual PI3K lipid kinase activity in the presence of each molecule at different concentrations was related to the control, intended as the recombinant protein in the presence of DMSO alone and was expressed as a percentage. To derive the IC50 value, all data (% of lipid kinase activity) were plotted on a dose–response curve (Graph Pad software), and the IC50 was calculated by using nonlinear regression fit (equation [log agonist] versus response).
For orientation: ADP-Glo turns the ADP formed in a reaction into a luminescent signal.

In assay [1] the target is T2, hPI3Kβ (PIK3CB wt/PIK3R1) (Homo sapiens, UniProt P42338).
T2 construct: purchased ProQinase, Germany 1168‐1165‐1
T2 sequence (P42338 whole entry): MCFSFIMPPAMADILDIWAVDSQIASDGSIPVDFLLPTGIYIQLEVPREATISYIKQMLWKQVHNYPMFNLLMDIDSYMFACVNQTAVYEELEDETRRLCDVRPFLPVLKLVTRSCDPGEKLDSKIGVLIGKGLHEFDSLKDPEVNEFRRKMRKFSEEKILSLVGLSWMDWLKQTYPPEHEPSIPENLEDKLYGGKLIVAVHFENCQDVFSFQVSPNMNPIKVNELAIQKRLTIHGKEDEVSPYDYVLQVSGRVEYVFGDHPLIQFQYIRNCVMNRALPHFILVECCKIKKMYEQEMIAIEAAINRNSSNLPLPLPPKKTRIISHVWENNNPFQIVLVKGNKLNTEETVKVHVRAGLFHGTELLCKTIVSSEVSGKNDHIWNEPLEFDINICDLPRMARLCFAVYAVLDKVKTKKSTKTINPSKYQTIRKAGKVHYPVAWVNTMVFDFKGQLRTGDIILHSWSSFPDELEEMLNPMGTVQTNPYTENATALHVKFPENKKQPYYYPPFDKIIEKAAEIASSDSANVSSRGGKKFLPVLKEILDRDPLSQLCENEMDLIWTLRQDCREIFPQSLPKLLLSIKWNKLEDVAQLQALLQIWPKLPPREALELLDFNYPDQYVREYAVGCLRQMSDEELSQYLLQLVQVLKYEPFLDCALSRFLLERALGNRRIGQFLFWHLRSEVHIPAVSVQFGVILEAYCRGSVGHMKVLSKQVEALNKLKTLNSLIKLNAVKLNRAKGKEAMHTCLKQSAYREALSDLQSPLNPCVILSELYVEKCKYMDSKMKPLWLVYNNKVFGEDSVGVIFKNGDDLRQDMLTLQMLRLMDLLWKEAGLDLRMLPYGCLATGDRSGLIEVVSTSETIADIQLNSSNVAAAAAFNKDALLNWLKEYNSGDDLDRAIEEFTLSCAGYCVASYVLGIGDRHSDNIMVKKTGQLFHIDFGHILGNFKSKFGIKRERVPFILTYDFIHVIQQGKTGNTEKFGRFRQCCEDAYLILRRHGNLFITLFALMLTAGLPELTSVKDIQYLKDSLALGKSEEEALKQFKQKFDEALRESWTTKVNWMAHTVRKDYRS
T2 sequence (P27986 whole entry partner): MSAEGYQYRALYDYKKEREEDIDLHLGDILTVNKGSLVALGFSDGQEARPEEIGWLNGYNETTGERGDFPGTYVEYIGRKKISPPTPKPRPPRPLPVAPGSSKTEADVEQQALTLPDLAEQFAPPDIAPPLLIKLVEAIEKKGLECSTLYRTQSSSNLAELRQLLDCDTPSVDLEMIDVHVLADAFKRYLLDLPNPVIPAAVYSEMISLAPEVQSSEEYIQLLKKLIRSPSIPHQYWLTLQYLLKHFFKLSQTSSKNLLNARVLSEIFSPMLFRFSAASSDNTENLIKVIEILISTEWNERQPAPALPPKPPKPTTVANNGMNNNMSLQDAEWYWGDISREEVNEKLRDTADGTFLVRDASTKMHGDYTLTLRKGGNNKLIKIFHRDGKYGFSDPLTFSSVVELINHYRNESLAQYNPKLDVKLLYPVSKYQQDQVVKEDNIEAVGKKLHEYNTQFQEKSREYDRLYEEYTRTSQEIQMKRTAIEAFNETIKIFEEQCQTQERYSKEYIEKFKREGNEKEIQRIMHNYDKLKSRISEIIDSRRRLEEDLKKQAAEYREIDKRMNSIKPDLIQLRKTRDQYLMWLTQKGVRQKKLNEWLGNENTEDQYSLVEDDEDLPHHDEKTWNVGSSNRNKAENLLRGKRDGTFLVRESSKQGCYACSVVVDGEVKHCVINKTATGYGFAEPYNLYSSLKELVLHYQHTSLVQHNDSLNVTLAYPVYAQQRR
Description: lipid kinase assay (ADP-Glo), PI3Kβ. Particulars: for inhibition at 1 µM: determined at 1 μM, at least triplicate, read-out: Inhibitory activity, PI3K isoform β; for IC50: Table 2, mean of at least three determinations, 95 % confidence intervals. The protocol:
as §1, §2

In another assay the target is T3, hPI3Kγ (PIK3CG) (Homo sapiens, UniProt P48736).
T3 construct: purchased ProQinase, Germany 1163‐0000‐1
T3 sequence (P48736 whole entry): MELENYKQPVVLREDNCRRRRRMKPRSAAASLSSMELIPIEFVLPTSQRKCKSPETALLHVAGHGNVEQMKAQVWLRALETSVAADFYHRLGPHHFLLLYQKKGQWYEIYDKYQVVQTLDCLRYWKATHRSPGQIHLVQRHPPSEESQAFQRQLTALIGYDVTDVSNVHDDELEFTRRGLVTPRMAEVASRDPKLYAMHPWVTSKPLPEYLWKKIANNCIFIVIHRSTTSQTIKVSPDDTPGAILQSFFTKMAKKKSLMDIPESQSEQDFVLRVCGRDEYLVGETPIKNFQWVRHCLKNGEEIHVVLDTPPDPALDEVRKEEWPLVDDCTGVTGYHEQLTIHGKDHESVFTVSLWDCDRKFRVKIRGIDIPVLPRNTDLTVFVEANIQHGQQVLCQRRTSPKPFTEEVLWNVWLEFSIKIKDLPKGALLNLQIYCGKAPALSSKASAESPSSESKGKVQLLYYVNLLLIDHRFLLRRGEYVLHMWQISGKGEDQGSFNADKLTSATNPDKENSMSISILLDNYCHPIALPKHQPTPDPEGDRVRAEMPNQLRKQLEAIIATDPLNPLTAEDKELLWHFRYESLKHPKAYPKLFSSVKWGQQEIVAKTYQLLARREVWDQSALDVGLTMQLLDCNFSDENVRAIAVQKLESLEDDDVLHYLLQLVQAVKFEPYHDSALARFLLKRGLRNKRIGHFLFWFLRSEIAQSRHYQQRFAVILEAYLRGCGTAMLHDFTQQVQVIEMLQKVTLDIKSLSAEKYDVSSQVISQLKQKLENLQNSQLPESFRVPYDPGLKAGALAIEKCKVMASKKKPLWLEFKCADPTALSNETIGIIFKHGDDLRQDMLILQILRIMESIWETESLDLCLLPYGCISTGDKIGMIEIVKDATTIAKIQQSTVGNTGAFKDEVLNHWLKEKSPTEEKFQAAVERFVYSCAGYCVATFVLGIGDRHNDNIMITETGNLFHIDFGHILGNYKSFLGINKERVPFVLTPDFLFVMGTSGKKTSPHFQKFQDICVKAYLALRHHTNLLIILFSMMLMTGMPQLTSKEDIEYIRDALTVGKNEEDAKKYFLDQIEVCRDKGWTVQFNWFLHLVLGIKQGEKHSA
Description: lipid kinase assay (ADP-Glo), PI3Kγ. Particulars: for inhibition at 1 µM: determined at 1 μM, at least triplicate, read-out: Inhibitory activity, PI3K isoform γ; for IC50: Table 2, mean of at least three determinations, 95 % confidence intervals. On the procedure:
as §1, §2

Assay [2] concerns the target T4, human PI3Kα (PIK3CA/PIK3R1) (Homo sapiens, UniProt P42336).
T4 construct: purchased ProQinase, Germany 1161‐1165‐1
The experiment in a line: lipid kinase assay (ADP-Glo), PI3Kα. Particulars: for inhibition at 1 µM: determined at 1 μM, at least triplicate, read-out: Inhibitory activity, PI3K isoform α; for IC50: Table 2, mean of at least three determinations, 95 % confidence intervals, read-out: IC50 PI3Kα. On the procedure:
as §1, §2

What is called IC50 is the concentration that gives 50% inhibition.

T4 sequence (P42336 whole entry): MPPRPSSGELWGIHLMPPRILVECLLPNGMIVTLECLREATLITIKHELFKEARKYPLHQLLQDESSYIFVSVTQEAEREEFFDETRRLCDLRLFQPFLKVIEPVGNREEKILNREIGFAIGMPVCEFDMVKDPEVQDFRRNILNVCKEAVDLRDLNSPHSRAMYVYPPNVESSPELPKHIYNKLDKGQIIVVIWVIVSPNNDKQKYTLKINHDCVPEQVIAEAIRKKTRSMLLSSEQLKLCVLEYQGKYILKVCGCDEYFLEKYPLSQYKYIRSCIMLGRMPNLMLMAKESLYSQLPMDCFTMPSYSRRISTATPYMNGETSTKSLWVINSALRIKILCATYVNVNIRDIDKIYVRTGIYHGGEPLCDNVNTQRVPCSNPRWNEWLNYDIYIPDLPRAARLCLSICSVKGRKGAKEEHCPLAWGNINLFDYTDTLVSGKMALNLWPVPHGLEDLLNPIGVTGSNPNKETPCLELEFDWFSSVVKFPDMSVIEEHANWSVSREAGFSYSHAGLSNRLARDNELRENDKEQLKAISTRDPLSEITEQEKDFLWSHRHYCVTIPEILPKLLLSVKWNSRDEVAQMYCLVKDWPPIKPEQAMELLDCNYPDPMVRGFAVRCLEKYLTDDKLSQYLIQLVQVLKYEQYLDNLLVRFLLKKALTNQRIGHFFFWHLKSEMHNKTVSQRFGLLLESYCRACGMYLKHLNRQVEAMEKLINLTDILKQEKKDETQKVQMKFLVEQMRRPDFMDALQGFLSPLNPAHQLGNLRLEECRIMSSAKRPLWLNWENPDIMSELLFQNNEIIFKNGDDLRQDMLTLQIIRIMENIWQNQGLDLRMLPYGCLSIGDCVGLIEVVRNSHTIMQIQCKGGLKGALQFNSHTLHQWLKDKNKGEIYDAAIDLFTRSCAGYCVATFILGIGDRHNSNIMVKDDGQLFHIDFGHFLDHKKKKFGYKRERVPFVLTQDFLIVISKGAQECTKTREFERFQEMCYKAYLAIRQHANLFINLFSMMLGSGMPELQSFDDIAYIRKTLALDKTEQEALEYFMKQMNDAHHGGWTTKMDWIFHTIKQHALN
T4 sequence (P27986 whole entry partner): as the sequence (P27986 whole entry partner) above
T1 sequence (O00329 whole entry): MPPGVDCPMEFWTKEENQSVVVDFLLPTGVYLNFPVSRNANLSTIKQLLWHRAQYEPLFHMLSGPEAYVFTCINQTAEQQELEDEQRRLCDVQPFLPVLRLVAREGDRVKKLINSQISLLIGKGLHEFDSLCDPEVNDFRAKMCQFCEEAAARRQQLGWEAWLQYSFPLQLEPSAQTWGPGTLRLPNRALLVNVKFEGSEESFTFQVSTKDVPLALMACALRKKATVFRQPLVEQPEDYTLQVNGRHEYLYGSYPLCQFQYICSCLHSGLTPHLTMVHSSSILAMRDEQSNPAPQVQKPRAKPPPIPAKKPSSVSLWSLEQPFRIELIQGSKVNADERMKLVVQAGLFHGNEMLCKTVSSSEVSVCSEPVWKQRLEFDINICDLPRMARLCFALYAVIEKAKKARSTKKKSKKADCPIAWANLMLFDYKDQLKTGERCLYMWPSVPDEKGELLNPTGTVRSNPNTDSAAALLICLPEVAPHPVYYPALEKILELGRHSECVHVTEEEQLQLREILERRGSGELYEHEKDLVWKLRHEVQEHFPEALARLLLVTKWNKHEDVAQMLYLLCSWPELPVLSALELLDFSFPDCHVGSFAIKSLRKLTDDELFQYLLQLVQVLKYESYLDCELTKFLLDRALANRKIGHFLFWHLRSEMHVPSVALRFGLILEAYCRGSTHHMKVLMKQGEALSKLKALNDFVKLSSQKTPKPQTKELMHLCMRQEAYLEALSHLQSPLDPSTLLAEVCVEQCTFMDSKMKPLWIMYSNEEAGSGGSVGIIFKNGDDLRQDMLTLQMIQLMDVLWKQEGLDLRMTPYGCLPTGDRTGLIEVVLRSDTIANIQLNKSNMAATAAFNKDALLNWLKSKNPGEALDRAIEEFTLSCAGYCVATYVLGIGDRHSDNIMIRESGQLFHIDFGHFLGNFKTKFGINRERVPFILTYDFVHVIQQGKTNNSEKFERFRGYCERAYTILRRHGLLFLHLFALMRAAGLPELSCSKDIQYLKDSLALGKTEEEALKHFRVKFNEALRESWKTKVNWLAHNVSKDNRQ
T1 sequence (P27986 whole entry partner): as the sequence (P27986 whole entry partner) above

As for `O=c1cc(N2CCOCC2)[nH]c2c(-c3cn(-c4cccc5ccccc45)nn3)cccc12` [Compound 53, 2‐Morpholino‐8‐[1‐(naphthalen‐1‐yl)‐1H‐1,2,3‐triazol‐4‐yl]quinolin‐4(1H)‐one], the inhibition at 1 µM (at hPI3Kδ (PIK3CD/PIK3R1); in assay [1]; on hPI3Kγ (PIK3CG); in assay [2]) was below 50% in each case.

Regarding `Nc1ccc(-n2cc(-c3cccc4c(=O)cc(N5CCOCC5)[nH]c34)nn2)cc1` [Compound 32, 8‐[1‐(4‐Aminophenyl)‐1H‐1,2,3‐triazol‐4‐yl]‐2‐morpholinoquinolin‐4(1H)‐one], the inhibition at 1 µM (on hPI3Kδ (PIK3CD/PIK3R1); in assay [1]; on hPI3Kγ (PIK3CG); in assay [2]) was below 50% each time.

For the compound `O=c1cc(N2CCOCC2)[nH]c2c(-c3cn(-c4ccccc4O)nn3)cccc12` [Compound 54, 8‐[1‐(2‐Hydroxyphenyl)‐1H‐1,2,3‐triazol‐4‐yl]‐2‐morpholinoquinolin‐4(1H)‐one], the IC50 is 350 ± 170 nM against hPI3Kδ (PIK3CD/PIK3R1), 1100 ± 500 nM in assay [1], 1400 ± 440 nM at hPI3Kγ (PIK3CG) and 260 ± 120 nM in assay [2]. Further, the inhibition at 1 µM is above 50% at hPI3Kδ (PIK3CD/PIK3R1), below 50% in assay [1], below 50% on hPI3Kγ (PIK3CG) and above 50% in assay [2].

With `O=c1cc(N2CCOCC2)[nH]c2c(-c3cn(Cc4ccccc4)nn3)cccc12` [Compound 48, 8‐(1‐Benzyl‐1H‐1,2,3‐triazol‐4‐yl)‐2‐morpholinoquinolin‐4(1H)‐one], the IC50 at hPI3Kδ (PIK3CD/PIK3R1) came out at 470 ± 260 nM; in assay [1], 100 ± 40 nM; at hPI3Kγ (PIK3CG) it was 1000 ± 500 nM; in assay [2] it was 2650 ± 800 nM. For the same compound, the inhibition at 1 µM at hPI3Kδ (PIK3CD/PIK3R1) was above 50%; in assay [1] it was above 50%; at hPI3Kγ (PIK3CG), above 50%; in assay [2], below 50%.

As for `O=c1cc(N2CCOCC2)[nH]c2c(-c3cn(-c4cnc5ccccc5c4)nn3)cccc12` [Compound 36, 2‐Morpholino‐8‐[1‐(quinolin‐3‐yl)‐1H‐1,2,3‐triazol‐4‐yl]quinolin‐4(1H)‐one], the inhibition at 1 µM (at hPI3Kδ (PIK3CD/PIK3R1); in assay [1]; at hPI3Kγ (PIK3CG); in assay [2]) was below 50% in each case.

Turning to `O=c1cc(N2CCOCC2)[nH]c2c(-c3cn(-c4ccc(Cl)cc4)nn3)cccc12` [Compound 28, 8‐[1‐(4‐Chlorophenyl)‐1H‐1,2,3‐triazol‐4‐yl]‐2‐morpholinoquinolin‐4(1H)‐one], the inhibition at 1 µM (at hPI3Kδ (PIK3CD/PIK3R1); in assay [1]; on hPI3Kγ (PIK3CG); in assay [2]) was below 50% in each case.

In the case of `COc1cccc(-n2cc(-c3cccc4c(=O)cc(N5CCOCC5)[nH]c34)nn2)c1` [Compound 35, 8‐[1‐(3‐Methoxyphenyl)‐1H‐1,2,3‐triazol‐4‐yl]‐2‐morpholinoquinolin‐4(1H)‐one], the IC50 at hPI3Kδ (PIK3CD/PIK3R1) was 810 ± 360 nM; in assay [1] it was 9300 ± 5800 nM; against hPI3Kγ (PIK3CG), 4200 ± 2100 nM; in assay [2] it was 1300 ± 700 nM. The inhibition at 1 µM on hPI3Kδ (PIK3CD/PIK3R1) was above 50%; in assay [1], below 50%; at hPI3Kγ (PIK3CG), below 50%; in assay [2] it was below 50%.

`COC(=O)c1ccc(-n2cc(-c3cccc4c(=O)cc(N5CCOCC5)[nH]c34)nn2)cc1` [Compound 42, Methyl 4‐[4‐(2‐morpholino‐4‐oxo‐1,4‐dihydroquinolin‐8‐yl)‐1H‐1,2,3‐triazol‐1‐yl]benzoate]: the inhibition at 1 µM (at hPI3Kδ (PIK3CD/PIK3R1); in assay [1]; at hPI3Kγ (PIK3CG); in assay [2]) was below 50% each time.

In the case of `O=c1cc(N2CCOCC2)[nH]c2c(-c3cn(-c4cccc(O)c4)nn3)cccc12` [Compound 26, 8‐[1‐(3‐Hydroxyphenyl)‐1H‐1,2,3‐triazol‐4‐yl]‐2‐morpholinoquinolin‐4(1H)‐one], the inhibition at 1 µM (at hPI3Kδ (PIK3CD/PIK3R1); in assay [1]; at hPI3Kγ (PIK3CG); in assay [2]) was below 50% each time.
